# Laboratory results from patent US20140314857A1, “FORMULATIONS FOR ENHANCED BIOAVAILABILITY OF ZANAMIVIR” (priority 2012, published 2014).
# Test: Intravenous and intraduodenal (bolus) bioavailability of zanamivir from Capmul MCM L8 25, 50, 75 µL (Example 7)
# Conditions: male, Sprague-Dawley, rat, in vivo; for concentration at 0.83 hr / concentration at 1 hr / concentration at 1.5 hr / concentration at 2 hr / concentration at 0.25 hr / concentration at 0.5 hr / concentration at 0.033 hr / concentration at 0.083 hr: 1.5 mg/animal, Plasma concentration; for clearance / half-life / Vd / Tmax: 1.5 mg; for clearance: CL; for half-life: T1/2, IV 1.5 mg/animal; for Vd: Vss
# Excerpt: Male Sprague-Dawley rats (Hilltop Labs), 3 animals per treatment group, 250-350 grams in weight, were fitted with a jugular vein cannula (JVC). Animals intended for intraduodenal dosing were also fitted with one or more intraduodenal cannula (IDC) and those intended for intravenous dosing were fitted with a second JVC. Food was withheld from the animals for a minimum of twelve hours prior to test article administration and was returned approximately four hours post-dose. Water was supplied ad libitum.
# Intraduodenal doses composed of 1.5 mg of zanamivir and varying amounts of an enhancer (glycerol or Capmul MCM L8) were injected directly into the duodenum via the IDC. Intravenous dosing was conducted by the injection of 1.5 mg of zanamivir in 200 μL of PBS through a JVC. For some experiments, the absorption enhancer was administered intraduodenally 2 hr prior to administering 1.5 mg of zanamivir in PBS through a second IDC. Each intraduodenal dose was followed with the introduction of a small air bubble (˜10 μL) in the cannula followed by a flush of 125 μL of PBS to ensure the dose was given in full. The volume of PBS used for cannula flush was consistent across the treatment groups. The cannula was tied to prevent the PBS remaining in the cannula from entering the duodenum.
# Blood samples collected via the JVC, approximately 400 μL each, were obtained at 2 min, 5 min, 15 min, 30 min, 60 min, 90 min, and 120 min, with sodium heparin used as an anti-coagulant. Each sample was placed into a chilled tube containing the anticoagulant and kept on ice until centrifugation at 4° C., 3,000×g, for 5 min. The plasma supernatants were stored at −70° C. until LC-MS analysis.
# Dosing solution samples were assayed by LC-MS/MS using electrospray ionization. The chromatographic system consisted of Perkin Elmer series 200 micropumps and autosampler equipped with a Waters Atlantic® HILIC Silica 3 μM, 2.1×50 mm column. The mass spectrometer was a PE Sciex API 4000 with electrospray interface in multiple reaction monitoring mode. […] Stock solutions (1 mg/mL zanamivir) were prepared in water. Standards (eight concentrations) were prepared in the appropriate matched matrix (HBSSg or Sprague-Dawley rat plasma containing sodium heparin) and diluted 50-fold with methanol. Experimental samples were treated identically.
# Standards and samples were prepared in Sprague Dawley rat plasma containing sodium heparin as an anticoagulant. An eight-point calibration curve was prepared at concentrations of 1000, 750, 500, 250, 100, 50, 25, and 10 ng/mL by serial dilution. Standard samples were treated identically to the study samples.
# Plasma samples were extracted by protein precipitation in methanol.
# In this example, the bioavailability of Zanamivir was evaluated after intraduodenal doses in male Sprague-Dawley rats. The test compound was dosed at 1.5 mg/animal through intravenous and intraduodenal routes from normal saline and Capmul MCM L8 formulations, respectively. Plasma levels were determined by LC-MS/MS analysis. Pharmacokinetic parameters were estimated by a non-compartmental model using WinNonlin v5.2.1 software.
# Each ID dose in groups 2-4 will be followed with a small air bubble ([…]) and a flush of […] of PBS to insure the dose is given in full. The volume of PBS used for cannulae flush will be maintained consistent across the animals and the treatment groups. The cannula will then be tied to help prevent the PBS remaining in the cannula from entering the duodenum.
# [1] = ID bolus 1.5 mg/animal, 50 µL Capmul MCM L8, Ex.7, individual rats
# [2] = ID bolus 1.5 mg/animal, 50 µL Capmul MCM L8, Ex.7, mean
# [3] = intraduodenal bolus, 75 μL Capmul MCM L8, mean of 3 rats
# [4] = intraduodenal bolus, 75 μL Capmul MCM L8, rat 963
# [5] = intraduodenal bolus, 75 μL Capmul MCM L8, rat 964
# [6] = intraduodenal bolus, 75 μL Capmul MCM L8, rat 965
# [7] = iv, IV 1.5 mg/animal, Normal Saline, Ex.7, individual rats
# [8] = iv, IV 1.5 mg/animal, Normal Saline, Ex.7, mean
smiles,measurement,setting,value
"CC(=O)NC1C(NC(=N)N)C=C(C(=O)O)OC1C(O)C(O)CO (stereo not drawn) [Zanamivir, 5-acetamido-4-guanidino-6-(1,2,3-trihydroxypropyl)-5,6-dihydro-4H-pyran-2-carboxylic acid]",concentration at 0.83 hr,[1],2.62 µg/mL
same,concentration at 0.83 hr,[2],2.12 µg/mL
same,concentration at 1 hr,[1],0.695 µg/mL
same,concentration at 1 hr,[2],0.651 µg/mL
same,concentration at 1.5 hr,[1],0.216 µg/mL
same,concentration at 1.5 hr,[2],0.244 µg/mL
same,concentration at 2 hr,[1],0.103 µg/mL
same,concentration at 2 hr,[2],0.12 µg/mL
same,concentration at 0.25 hr,[3],2.39 µg/mL
same,concentration at 0.25 hr,[4],2.56 µg/mL
same,concentration at 0.25 hr,[5],1.71 µg/mL
same,concentration at 0.25 hr,[6],2.89 µg/mL
same,concentration at 0.5 hr,[3],1.72 µg/mL
same,concentration at 0.5 hr,[4],1.82 µg/mL
same,concentration at 0.5 hr,[5],1.13 µg/mL
same,concentration at 0.5 hr,[6],2.2 µg/mL
same,concentration at 0.83 hr,[3],2.57 µg/mL
same,concentration at 0.83 hr,[4],2.94 µg/mL
same,concentration at 0.83 hr,[5],1.69 µg/mL
same,concentration at 0.83 hr,[6],3.07 µg/mL
same,concentration at 1 hr,[3],0.828 µg/mL
same,concentration at 1 hr,[4],0.748 µg/mL
same,concentration at 1 hr,[5],0.807 µg/mL
same,concentration at 1 hr,[6],0.929 µg/mL
same,concentration at 1.5 hr,[3],0.349 µg/mL
same,concentration at 1.5 hr,[4],0.403 µg/mL
same,concentration at 1.5 hr,[5],0.273 µg/mL
same,concentration at 1.5 hr,[6],0.372 µg/mL
same,concentration at 2 hr,[3],0.154 µg/mL
same,concentration at 2 hr,[4],0.18 µg/mL
same,concentration at 2 hr,[5],0.121 µg/mL
same,concentration at 2 hr,[6],0.16 µg/mL
same,clearance,[7],0.632 L/h/kg
same,clearance,[8],0.614 L/h/kg
same,half-life,"iv, Normal Saline, Ex.7, individual rats",24.1 min
same,half-life,"iv, Normal Saline, Ex.7, mean",23.8 ± 2.1 min
same,Vd,[7],0.276 L/kg
same,Vd,[8],0.271 ± 0.01 L/kg
same,Tmax,[7],0 h
same,Tmax,[8],0 h
same,concentration at 0.033 hr,[7],20.9 µg/mL
same,concentration at 0.033 hr,[8],21.4 µg/mL
same,concentration at 0.083 hr,[7],11 µg/mL
same,concentration at 0.083 hr,[8],12.3 µg/mL
same,concentration at 0.25 hr,[7],11 µg/mL
same,concentration at 0.25 hr,[8],10.7 µg/mL
same,concentration at 0.5 hr,[7],6.27 µg/mL
same,concentration at 0.5 hr,[8],6.07 µg/mL
same,concentration at 1 hr,[7],1.56 µg/mL
same,concentration at 1 hr,[8],1.76 µg/mL
same,concentration at 1.5 hr,[7],0.741 µg/mL
same,concentration at 1.5 hr,[8],0.755 µg/mL
same,concentration at 2 hr,[7],0.278 µg/mL
same,concentration at 2 hr,[8],0.31 µg/mL
